# Source: patent publication US20230158071A1, “TUMOR COMBINED IMMUNOTHERAPY” (CRAGE medical Co., Limited, priority 2018, published 2023)
# Legend:
# E0771-EGFRvIII cells = assay: CCK8 proliferation assay, olaparib on E0771-EGFRvIII breast cancer cells; type: cell-based, mouse
# Excerpt: Since the EGFR287-302 epitope is only exposed in EGFRvIII or tumors overexpressing EGFR, this epitope is hidden in normal tissues (Gan H K et al., Targeting of a conformationally exposed, tumor-specific epitope of EGFR as a strategy for cancer therapy. Cancer Res. 2012, 72(12):2924-2930), conventional methods in molecular biology are used to establish E0771, 4T1 mouse breast cancer cell models (E0771-EGFRvIII, 4T1-EGFRvIII) that overexpress mouse EGFR inserted with amino acid epitope at positions 287-302 of human EGFR. Subsequent research is performed to screen EGFRvIII target-positive cells by cell flow cytometry (FIG. 2A). E0771, 4T1 cells are purchased from the American Type Culture Collection (ATCC).
# As an effective inhibitor of PARP1, olaparib may inhibit PARP1 to participate in DNA damage repair process. In mouse breast cancer cell lines and mouse T cells and CART cells, different levels of PARP1 expression are detected (FIG. 2B). Therefore, CCK8 proliferation assay is required to detect the effect of olaparib on proliferation of tumor cells and CART cells.
# 806-m28Z CAR-T cells in Example 1 are taken to spread in a 96-well plate with 1×10^4 cells per well and 100 μl medium. Breast cancer cells E0771-EGFRvIII and 4T1-EGFRvIII are taken to spread in a 96-well plate with 1×10^4 cells per well and 100 μl medium. Different concentrations of olaparib are taken to add to the cells to make 10 concentration gradients (i.e., the treatment concentrations of olaparib are respectively 50 μM, 20 μM, 10 μM, 5 μM, 2.5 μM, 1 μM, 0.1 μM, 0.01 μM, 0.001 μM, 0 μg/ml). After 48 hours of drug treatment for cells of different groups, 10 μl of CCK8 substrate color reagent (Dojindo) is added to each well; after incubating for 1 hour at 37° C., the absorbance at 450 nm is measured by a microplate reader, calculating the cell viability respectively.
# The formula for calculating the cell viability is as follows:
# Cell viability (%)=[A (adding drug)−A (blank)]/[A (without adding drug)−A (blank)]
# [1] = tested on: E0771-EGFRvIII orthotopic breast cancer xenografts; assay: Mouse E0771-EGFRvIII orthotopic breast cancer xenografts, olaparib and CAR-T; type: in vivo, C57BL/6 mice; settings: olaparib 50 mg/kg i.p. with CAR-T cells
# Description: (1) Establishment of mouse orthotopic breast cancer model and respective treatment in groups:
# E0771-EGFRvIII cells in the logarithmic growth phase and growing well are collected, inoculating 5×10^5 target cells at right side position of the third pair of accessory breasts of C57BL/6 mice (mice with normal immune system), and the inoculating day is recorded as the first day (i.e., Day 1).
# On the 10th day after tumor inoculation (i.e. Day 10), mouse T cells are taken and 806-mCD28z-CAR-T cell line is constructed as described in step 1 of this example.
# On the 14th day after tumor inoculation (i.e., Day 14), the volume of the tumor reaches about 150 mm^3, and the mice are divided in groups:
# The formula of olaparib stock solution: olaparib is added with 4% DMSO+30% PEG300+66% ddH2O in sequence; a solution of 5 mg/mL is used as the stock solution. […]
# (2) Detection of tumor volume. The tumor volume changes of mice are observed and measured continuously, and recorded three times a week. […]
# (4) Detection of CAR-T copy number in tumor tissues. Tumor tissues of each group of mice are ground to extract DNA, and the sequence of retroviral vector fragment is detected by Taqman probe method to determine the DNA copy number of 806-mCD28z-CAR. […]
structure (smiles),measurement,setting,value
O=C(c1cc(Cc2n[nH]c(=O)c3ccccc23)ccc1F)N1CCN(C(=O)C2CC2)CC1 [olaparib],inhibition rate of proliferation of E0771-EGFRVIII cell line,"E0771-EGFRvIII cells; 1 μM and higher concentration of olaparib, 48 hours, CCK8",65%-90%
same,proliferation of E0771-EGFRVIII cells,E0771-EGFRvIII cells; 1 μM olaparib,inhibited
same,concentration that may inhibit the growth of tumor cells,"E0771-EGFRvIII cells; in vitro, tumor cells not specified further",higher than 104
same,proliferation of E0771-EGFRVIIII cells,E0771-EGFRvIII cells; olaparib,inhibited
same,toxicity of combining olaparib with CAR-T cell therapy (from body weights),[1],do not cause significant toxicity
